Like-named read-outs stand apart in the source and are kept apart here.
How the values were obtained:
[1] = parameters: method as in PMID 25490858; conditions: administered subcutaneously to mice; remained above this level for 8 h; cited from earlier work
[2] = parameters: method as in PMID 25490858; conditions: subcutaneous 32 mg/kg twice daily for 4 d; cited from earlier work
blood stage P. berghei = test system: blood stage P. berghei; parameters: method as in PMID 25490858; conditions: mice, subcutaneous 32 mg/kg twice daily for 4 d; cited from earlier work
[3] = parameters: method as in PMID 25490858; conditions: cited from earlier work
[4] = parameters: method as in PMID 25490858; conditions: cited from earlier work; remark: listed apart in the source
[5] = test system: P. falciparum chloroquine-sensitive line (3D7); experiment: P. falciparum growth inhibition assay ([3H]-hypoxanthine isotopic microtest), 3D7 line; format: cell-based, Plasmodium falciparum; conditions: for increase in 3D7 activity on exchanging saturated system (13, 14) for unsaturated motif: 15 vs 13, 16 vs 14; for IC50: Plasmodium falciparum, read-out: Mean IC50 ± SD, 3D7
Experimental: (§1) P. falciparum growth inhibition assays were carried out using an isotopic microtest, as previously described [16]. […] The final concentration of DMSO vehicle was <0.5% in all assay wells (non-toxic). After 48 h cells were harvested onto 1450 MicroBeta filter mats (PerkinElmer, Waltham, Massachusetts, USA) and [^3H] incorporation determined using a 1450 MicroBeta liquid scintillation counter. Percentage inhibition of growth compared to matched DMSO controls was determined and IC50 values were calculated using linear interpolation of inhibition curves [17]. The mean IC50 or % inhibition (±SD) was calculated for three independent experiments, each carried out in triplicate.

[6] = test system: P. falciparum multidrug-resistant line (Dd2); experiment: P. falciparum growth inhibition assay ([3H]-hypoxanthine isotopic microtest), Dd2 line; format: cell-based; conditions: Plasmodium falciparum, read-out: Mean IC50 ± SD, Dd2
Experimental: as §1

[7] = test system: neonatal foreskin fibroblast (NFF) cells; experiment: Mammalian toxicity using human neonatal foreskin fibroblast cells; format: cell-based; conditions: for IC50: Homo sapiens, NFF, read-out: Mean IC50 ± SD, NFF; for SI (selectivity index = NFF cell-line IC50/P. falciparum IC50): range over 3D7 and Dd2 lines
Plasmodium falciparum = experiment: In vitro P. falciparum growth inhibition (line not given); format: cell-based; conditions: 3D7 and Dd2 lines
[8] = test system: P. falciparum chloroquine-sensitive line (3D7); parameters: method as in PMID 24032556; conditions: chloroquine-sensitive (3D7) P. falciparum line; read-out: in vitro IC50, 3D7; cited from earlier work
[9] = test system: P. falciparum multidrug-resistant line (Dd2); parameters: method as in PMID 24032556; conditions: read-out: in vitro IC50, Dd2; cited from earlier work
[10] = P. falciparum chloroquine-sensitive line 3D7, 48 h, three independent experiments in triplicate
[11] = P. falciparum multidrug-resistant line Dd2, 48 h, three independent experiments in triplicate
[12] = neonatal foreskin fibroblast cells

Row | IC50 [5, 10] | IC50 [6, 11] | SMILES | IC50 [7, 12] | SI (selectivity index = NFF cell-line IC50/P. falciparum IC50) [7] | other results
1 | 0.313 ± 0.084 µM | 0.129 ± 0.0039 µM | O=C1C2=C(C(=O)c3[nH]ccc31)S(=O)(=O)C=CN2 [Compound 15] | 2.8 ± 0.4 µM | 8.9–21.7 | increase in 3D7 activity on exchanging saturated system (13, 14) for unsaturated motif [5]: 23.9 fold
2 | 13.5 µM | 11.5 µM | O=C1C=CC(=O)c2[nH]ccc21 [Compound 17, 1H-indole-4,7-dione] | 4.7 ± 0.1 µM | 0.3–0.4 | antiplasmodial activity (Plasmodium falciparum): essentially inactive
3 | 6.9 ± 0.7 µM | 3.7 ± 0.5 µM | O=C1C2=C(NCCS2(=O)=O)C(=O)c2[nH]ccc21 [Compound 14] | 69.6 µM | 10.1–18.8 | 
4 | 0.252 ± 0.035 µM | 0.127 ± 0.0086 µM | O=C1C2=C(NC=CS2(=O)=O)C(=O)c2[nH]ccc21 [Compound 16] | 4.6 ± 0.8 µM | 18.2–36.2 | increase in 3D7 activity on exchanging saturated system (13, 14) for unsaturated motif [5]: 27.3 fold

Second part, the compound before the results:

Row | SMILES | IC50 [5, 10] | IC50 [6, 11] | IC50 [7, 12] | SI (selectivity index = NFF cell-line IC50/P. falciparum IC50) [7] | other results
5 | CCCCNC(=O)NCCc1c[nH]c2c1C(=O)C1=C(NC=CS1(=O)=O)C2=O [Compound 9] |  |  |  |  | plasma concentration [1]: > 200 nM; tolerability in mice [2]: well tolerated; suppression of blood stage P. berghei parasitemia relative to controls (blood stage P. berghei): 26%; metabolic stability [3]: good; solubility [4]: good
6 | Cc1ccc(S(=O)(=O)n2ccc3c2C(=O)C2=C(NCCS2(=O)=O)C3=O)cc1 [Compound 11] | 0.546 ± 0.119 µM | 0.509 ± 0.309 µM | 1.4 ± 0.7 µM |  | 
7 | Cc1ccc(S(=O)(=O)n2ccc3c2C(=O)C=CC3=O)cc1 [Compound 10, 1-tosyl-1H-indole-4,7-dione] | 18.2 µM | 11.1 µM | 7.6 ± 1.2 µM | 0.4–0.7 | antiplasmodial activity (Plasmodium falciparum): essentially inactive
8 | CCN(CC)CCCC(C)Nc1ccnc2cc(Cl)ccc12 (stereo not drawn) [CQ, chloroquine, reference compound] |  |  |  | 811.1–4679.5 | IC50 ([5]; 3D7, 48 h): 0.0078 ± 0.0027 µM; IC50 ([6]; DD2, 48 h): 0.045 ± 0.01 µM; IC50 [7]: 36.5 µM
9 | NCCc1c[nH]c2c1C(=O)C1=C(NC=CS1(=O)=O)C2=O [Thiaplakortone A, thiaplakortone A] |  |  |  |  | IC50 [8]: 0.051 µM; IC50 [9]: 0.0066 µM
10 | CC(=O)NCCc1c[nH]c2c1C(=O)C1=C(NC=CS1(=O)=O)C2=O [Compound 8] |  |  |  |  | plasma concentration [1]: > 200 nM; tolerability in mice [2]: well tolerated; suppression of blood stage P. berghei parasitemia relative to controls (blood stage P. berghei): 52%; metabolic stability [3]: good; solubility [4]: good
11 | Cc1ccc(S(=O)(=O)n2ccc3c2C(=O)C2=C(C3=O)S(=O)(=O)CCN2)cc1 [Compound 12] | 0.834 ± 0.089 µM | 0.607 ± 0.158 µM | 19 µM | 22.8–31.3 | 
12 | O=C1C2=C(C(=O)c3[nH]ccc31)S(=O)(=O)CCN2 [Compound 13] | 7.5 ± 0.9 µM | 3.8 ± 0.4 µM | 39 µM | 5.2–10.3 | 

Source: PMC4584354, “Synthesis and Antiplasmodial Evaluation of Analogues Based on the Tricyclic Core of Thiaplakortones A–D” (Marine Drugs, 2015)
